This is an account of results in patent US12516070B2, “Fused ring derivatives and use thereof in pharmacy” (priority 2020, dated 2026).

Assay [1] relates to A/PR/8/34 I38T Mutation (H1N1). Type of assay: cell-based, influenza virus.
For assay [2], the system named is A/WSN/33 I38T Mutation (H1N1). In kind it is cell-based, influenza virus.

For orientation: EC50 means the midpoint of the concentration-response curve.

As to `CN1C(=O)c2c(O)c(=O)ccn2N2[C@H](c3ccccc3Br)c3cc(F)c(F)cc3OCC[C@@H]12` [Compound 18A], the results for the EC50 in assay [1] and in assay [2] were 117 nM and 214 nM, respectively.
